Values belong to the compound of their own block, whether it stands above or below them.
Tests used:
Assay in all cases: Kinase panel enzymatic inhibition assay (Nanosyn)
Format in all cases: biochemical
WEE1 = target: T1, WEE1 (Homo sapiens, UniProt P30291); conditions: ATP at Km; 30-minute pre-incubation; read-out: kinase inhibition in terms of IC50, WEE1
T1 construct: purchased Nanosyn
Description: (§1) The disclosed compounds were tested for activity against a panel of at least 300 kinases. Kinase panel screening was conducted by Nanosyn (Santa Clara, CA 95051) using an enzymatic inhibition assay accepted as valid by those skilled in the art (e.g., the Caliper LabChip® mobility shift assay, an ADP detection assay, or time-resolved fluorescence detection technology. Compounds were screened at a concentration of 5 μM using an ATP concentration at the Km for each of the respective kinases and a 30-minute pre-incubation time-point.
(§2) In Table 1 and 2, kinase inhibition is classified by: A=95% or greater, B=90%-94%, C=80%-89%, and D=79% and less with a compound concentration of 5 JIM. In Table 3 and 4, kinase inhibition is reported in terms of IC50 values corresponding to A=less than 500 nm, B=500 nm to less than 1 μM, C=1 μM to less than 10 μM, and D=10 μM or greater using a compound concentration of 5 μM.

PAK1 = target: T2, PAK1 (Homo sapiens, UniProt Q13153); conditions: ATP at Km; 30-minute pre-incubation; read-out: kinase inhibition in terms of IC50, PAK1
T2 construct: Nanosyn (contract laboratory that ran the panel)
T2 sequence (Q13153 whole entry): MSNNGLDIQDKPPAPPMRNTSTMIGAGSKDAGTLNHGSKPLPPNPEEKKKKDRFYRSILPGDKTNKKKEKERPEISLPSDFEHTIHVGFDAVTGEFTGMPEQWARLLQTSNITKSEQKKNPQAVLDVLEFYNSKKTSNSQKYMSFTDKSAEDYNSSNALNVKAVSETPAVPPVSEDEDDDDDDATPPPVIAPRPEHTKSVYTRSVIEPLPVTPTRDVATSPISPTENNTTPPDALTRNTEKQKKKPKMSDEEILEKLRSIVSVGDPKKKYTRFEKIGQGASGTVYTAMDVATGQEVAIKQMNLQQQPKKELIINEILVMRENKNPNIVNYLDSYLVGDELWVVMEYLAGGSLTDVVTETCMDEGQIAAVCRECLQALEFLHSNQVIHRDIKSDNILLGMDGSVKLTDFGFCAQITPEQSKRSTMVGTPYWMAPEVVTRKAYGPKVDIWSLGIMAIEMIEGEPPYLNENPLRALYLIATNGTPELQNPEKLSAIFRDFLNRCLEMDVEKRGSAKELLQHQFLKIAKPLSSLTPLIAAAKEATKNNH
Description: as §1, §2

SYK = target: T3, SYK (Homo sapiens, UniProt P43405); conditions: ATP at Km; 30-minute pre-incubation; read-out: kinase inhibition in terms of IC50, SYK
T3 construct: purchased Nanosyn
Description: as §1, §2

TYRO3 = target: T4, TYRO3 (Homo sapiens, UniProt Q06418); conditions: ATP at Km; 30-minute pre-incubation; read-out: kinase inhibition in terms of IC50, TYRO3
T4 construct: purchased Nanosyn
T4 sequence (Q06418 41-890): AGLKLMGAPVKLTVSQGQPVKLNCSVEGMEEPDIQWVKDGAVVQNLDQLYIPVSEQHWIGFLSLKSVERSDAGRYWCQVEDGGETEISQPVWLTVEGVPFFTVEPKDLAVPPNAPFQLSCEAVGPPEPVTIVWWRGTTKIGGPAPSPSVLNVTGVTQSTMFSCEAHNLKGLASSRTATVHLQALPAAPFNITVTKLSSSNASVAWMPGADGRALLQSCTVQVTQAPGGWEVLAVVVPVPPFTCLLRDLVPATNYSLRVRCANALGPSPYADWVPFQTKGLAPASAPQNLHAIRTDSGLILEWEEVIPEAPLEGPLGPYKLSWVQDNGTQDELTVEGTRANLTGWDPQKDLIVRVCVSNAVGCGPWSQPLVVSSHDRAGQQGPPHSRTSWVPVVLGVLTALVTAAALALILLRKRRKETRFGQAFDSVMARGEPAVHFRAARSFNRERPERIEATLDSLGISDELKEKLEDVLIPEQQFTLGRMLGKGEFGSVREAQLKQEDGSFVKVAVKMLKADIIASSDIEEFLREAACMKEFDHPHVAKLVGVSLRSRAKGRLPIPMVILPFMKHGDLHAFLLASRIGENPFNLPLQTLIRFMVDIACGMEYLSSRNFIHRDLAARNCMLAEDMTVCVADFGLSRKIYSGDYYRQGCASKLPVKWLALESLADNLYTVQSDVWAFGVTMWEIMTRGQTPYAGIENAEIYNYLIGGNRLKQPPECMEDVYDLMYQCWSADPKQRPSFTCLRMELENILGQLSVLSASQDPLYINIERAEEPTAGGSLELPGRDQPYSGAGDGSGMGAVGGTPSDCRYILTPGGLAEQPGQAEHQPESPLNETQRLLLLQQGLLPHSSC
Description: as §1, §2

RIPK1 = target: T5, RIPK1 (Homo sapiens, UniProt Q13546); conditions: ATP at Km; 30-minute pre-incubation; read-out: kinase inhibition in terms of IC50, RIPK1
T5 construct: purchased Nanosyn
T5 sequence (Q13546 1-671): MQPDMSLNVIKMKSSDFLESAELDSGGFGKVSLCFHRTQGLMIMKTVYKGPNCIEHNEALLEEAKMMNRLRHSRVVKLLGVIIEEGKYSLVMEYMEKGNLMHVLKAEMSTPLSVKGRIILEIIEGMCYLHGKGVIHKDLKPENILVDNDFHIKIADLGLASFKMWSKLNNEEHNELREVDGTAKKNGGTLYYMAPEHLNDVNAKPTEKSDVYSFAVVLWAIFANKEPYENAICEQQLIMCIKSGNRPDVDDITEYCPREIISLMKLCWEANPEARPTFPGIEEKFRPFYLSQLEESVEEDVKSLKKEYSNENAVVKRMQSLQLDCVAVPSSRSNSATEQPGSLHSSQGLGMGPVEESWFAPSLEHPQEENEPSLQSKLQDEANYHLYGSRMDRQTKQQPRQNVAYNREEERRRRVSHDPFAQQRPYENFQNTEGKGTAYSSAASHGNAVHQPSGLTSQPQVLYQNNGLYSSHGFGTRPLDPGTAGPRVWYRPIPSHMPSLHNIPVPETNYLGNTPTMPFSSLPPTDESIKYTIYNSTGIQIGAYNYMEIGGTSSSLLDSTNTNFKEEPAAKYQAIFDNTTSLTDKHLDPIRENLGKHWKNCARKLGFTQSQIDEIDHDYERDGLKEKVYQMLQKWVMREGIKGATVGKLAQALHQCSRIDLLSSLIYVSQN
Description: as §1, §2

RIPK2 = target: T6, RIPK2 (Homo sapiens, UniProt O43353); conditions: ATP at Km; 30-minute pre-incubation; read-out: kinase inhibition in terms of IC50, RIPK2
T6 construct: purchased Nanosyn
T6 sequence (O43353 whole entry): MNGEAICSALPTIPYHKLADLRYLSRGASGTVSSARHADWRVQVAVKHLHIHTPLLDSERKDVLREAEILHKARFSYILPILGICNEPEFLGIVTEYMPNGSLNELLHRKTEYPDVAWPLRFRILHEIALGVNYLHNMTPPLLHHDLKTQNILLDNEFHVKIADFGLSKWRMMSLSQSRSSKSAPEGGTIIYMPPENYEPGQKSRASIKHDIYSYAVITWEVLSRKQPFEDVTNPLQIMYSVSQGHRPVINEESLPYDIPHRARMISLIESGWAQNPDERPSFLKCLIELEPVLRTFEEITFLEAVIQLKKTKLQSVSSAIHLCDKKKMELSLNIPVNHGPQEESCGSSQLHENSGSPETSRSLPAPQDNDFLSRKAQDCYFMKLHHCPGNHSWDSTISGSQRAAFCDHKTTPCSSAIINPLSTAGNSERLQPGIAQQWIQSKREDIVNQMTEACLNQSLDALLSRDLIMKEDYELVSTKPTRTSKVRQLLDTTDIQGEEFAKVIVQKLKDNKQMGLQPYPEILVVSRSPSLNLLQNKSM
Description: as §1, §2

TAK1-TAB1 = target: T7, TAK1-TAB1 (Homo sapiens, UniProt O43318); conditions: ATP at Km; 30-minute pre-incubation; read-out: kinase inhibition in terms of IC50, TAK1-TAB1
T7 construct: purchased Nanosyn
T7 sequence (O43318 with tags, fused parts or gaps limits assumed): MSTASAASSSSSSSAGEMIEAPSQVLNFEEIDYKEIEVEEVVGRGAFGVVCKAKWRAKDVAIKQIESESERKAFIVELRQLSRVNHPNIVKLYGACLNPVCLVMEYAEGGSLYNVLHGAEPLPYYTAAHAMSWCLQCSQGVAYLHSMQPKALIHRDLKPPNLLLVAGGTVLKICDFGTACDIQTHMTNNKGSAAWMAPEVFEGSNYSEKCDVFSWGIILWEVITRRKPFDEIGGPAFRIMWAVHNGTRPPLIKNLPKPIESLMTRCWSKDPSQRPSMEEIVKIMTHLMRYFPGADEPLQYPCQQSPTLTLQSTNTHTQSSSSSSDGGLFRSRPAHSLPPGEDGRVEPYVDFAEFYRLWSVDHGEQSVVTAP
Description: as §1, §2

PLK4 = target: T8, PLK4 (Homo sapiens, UniProt O00444); conditions: ATP at Km; 30-minute pre-incubation; read-out: kinase inhibition in terms of IC50, PLK4
T8 construct: Nanosyn (contract laboratory that ran the panel)
T8 sequence (O00444 1-970): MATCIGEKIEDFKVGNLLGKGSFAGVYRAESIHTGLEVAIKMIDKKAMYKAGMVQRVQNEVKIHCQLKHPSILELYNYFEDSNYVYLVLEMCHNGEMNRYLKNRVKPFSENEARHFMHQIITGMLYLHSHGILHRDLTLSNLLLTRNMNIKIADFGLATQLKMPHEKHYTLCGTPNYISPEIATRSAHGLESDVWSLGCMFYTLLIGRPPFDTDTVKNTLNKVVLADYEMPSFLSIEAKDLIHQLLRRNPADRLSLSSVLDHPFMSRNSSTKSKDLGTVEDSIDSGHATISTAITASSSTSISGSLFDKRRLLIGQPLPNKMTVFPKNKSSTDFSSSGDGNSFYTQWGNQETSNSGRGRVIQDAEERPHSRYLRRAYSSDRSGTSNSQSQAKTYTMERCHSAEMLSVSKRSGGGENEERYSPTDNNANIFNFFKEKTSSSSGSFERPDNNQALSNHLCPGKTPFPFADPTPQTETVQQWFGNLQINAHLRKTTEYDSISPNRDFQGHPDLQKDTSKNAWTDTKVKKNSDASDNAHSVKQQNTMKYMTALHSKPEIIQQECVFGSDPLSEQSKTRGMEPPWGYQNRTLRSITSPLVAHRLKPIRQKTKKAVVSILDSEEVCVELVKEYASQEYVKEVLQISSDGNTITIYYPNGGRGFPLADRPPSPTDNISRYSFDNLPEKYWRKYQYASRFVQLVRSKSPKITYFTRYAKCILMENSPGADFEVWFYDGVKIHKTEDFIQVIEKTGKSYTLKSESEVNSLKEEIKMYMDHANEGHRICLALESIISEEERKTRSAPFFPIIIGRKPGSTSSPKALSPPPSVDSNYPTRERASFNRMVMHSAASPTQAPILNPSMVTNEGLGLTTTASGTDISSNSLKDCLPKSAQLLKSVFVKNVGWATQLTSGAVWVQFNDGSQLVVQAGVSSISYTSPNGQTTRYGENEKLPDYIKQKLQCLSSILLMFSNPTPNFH
Description: as §1, §2

T1 sequence (P30291 whole entry): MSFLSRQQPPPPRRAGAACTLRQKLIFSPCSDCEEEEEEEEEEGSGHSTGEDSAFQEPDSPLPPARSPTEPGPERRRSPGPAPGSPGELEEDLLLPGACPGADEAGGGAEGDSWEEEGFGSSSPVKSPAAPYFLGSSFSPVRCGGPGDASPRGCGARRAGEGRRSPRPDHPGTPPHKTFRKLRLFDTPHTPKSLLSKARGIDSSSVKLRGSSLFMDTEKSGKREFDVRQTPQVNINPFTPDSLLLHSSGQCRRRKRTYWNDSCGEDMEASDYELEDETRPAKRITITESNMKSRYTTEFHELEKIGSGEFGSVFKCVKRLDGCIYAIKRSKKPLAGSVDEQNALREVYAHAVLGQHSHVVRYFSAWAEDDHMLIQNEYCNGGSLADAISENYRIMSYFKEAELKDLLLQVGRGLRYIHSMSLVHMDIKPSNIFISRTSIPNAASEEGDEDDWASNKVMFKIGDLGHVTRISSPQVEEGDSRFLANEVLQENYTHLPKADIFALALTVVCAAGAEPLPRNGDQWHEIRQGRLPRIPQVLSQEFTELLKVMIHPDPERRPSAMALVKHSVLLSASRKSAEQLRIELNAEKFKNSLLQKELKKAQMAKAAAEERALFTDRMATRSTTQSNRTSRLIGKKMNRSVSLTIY

IC50 (WEE1): ≥ 10 µM
SMILES: CNc1ncc2c(C)c(-c3cc(NC(=O)c4ccn(-c5ccc(F)cc5)n4)ccc3Cl)c(=O)n(C)c2n1 [Ex69, N-(4-chloro-3-(5,8-dimethyl-2-(methylamino)-7-oxo-7,8-dihydropyrido[2,3-d]pyrimidin-6-yl)phenyl)-1-(4-fluorophenyl)-1H-pyrazole-3-carboxamide]

IC50 (WEE1): ≥ 10 µM
SMILES: CS(=O)(=O)c1cc(C(=O)Nc2cc(Br)c(F)c(C(=O)c3c[nH]c4ncc(Cl)cc34)c2F)nn1-c1ccc(F)cc1 [Ex70, N-(5-bromo-3-(5-chloro-1H-pyrrolo[2,3-b]pyridine-3-carbonyl)-2,4-difluorophenyl)-1-(4-fluorophenyl)-5-(methylsulfonyl)-1H-pyrazole-3-carboxamide]

IC50 (PAK1): ≥ 10 µM
IC50 (SYK): 1 to 10 µM
IC50 (WEE1): ≥ 10 µM
SMILES: CNc1ncc2cc(-c3cc(NC(=O)c4ccn(-c5ccc(F)cc5)n4)ccc3C)c(=O)n(C)c2n1 [Ex74, 1-(4-fluorophenyl)-N-(4-methyl-3-(8-methyl-2-(methylamino)-7-oxo-7,8-dihydropyrido[2,3-d]pyrimidin-6-yl)phenyl)-1H-pyrazole-3-carboxamide]

IC50 (SYK): ≥ 10 µM
IC50 (TYRO3): < 0.5 µM
SMILES: COc1cc2nccc(Oc3ccc(NC(=O)c4cc(SC)n(-c5ccc(F)cc5)n4)c(F)c3)c2cc1OC [Ex77, N-(4-((6,7-dimethoxyquinolin-4-yl)oxy)-2-fluorophenyl)-1-(4-fluorophenyl)-5-(methylthio)-1H-pyrazole-3-carboxamide]

IC50 (SYK): 1 to 10 µM
IC50 (TYRO3): < 0.5 µM
SMILES: COc1cc2nccc(Oc3ccc(NC(=O)c4ccn(-c5ccc(F)cc5)n4)c(F)c3)c2cc1OC [Ex78, N-(4-((6,7-dimethoxyquinolin-4-yl)oxy)-2-fluorophenyl)-1-(4-fluorophenyl)-1H-pyrazole-3-carboxamide]

IC50 (RIPK1): < 0.5 µM
IC50 (RIPK2): < 0.5 µM
SMILES: Cc1ccc(NC(=O)c2ccn(-c3ccc(F)cc3)n2)cc1C#Cc1cnc2cccnn12 [Ex79, 1-(4-fluorophenyl)-N-(3-(imidazo[1,2-b]pyridazin-3-ylethynyl)-4-methylphenyl)-1H-pyrazole-3-carboxamide]

IC50 (RIPK1): ≥ 10 µM
IC50 (RIPK2): ≥ 10 µM
SMILES: Cn1cnc2ccc(Oc3ccc(F)c(NC(=O)c4ccn(-c5ccc(F)cc5)n4)c3)cc2c1=O [Ex80, N-(2-fluoro-5-((3-methyl-4-oxo-3,4-dihydroquinazolin-6-yl)oxy)phenyl)-1-(4-fluorophenyl)-1H-pyrazole-3-carboxamide]

IC50 (SYK): 1 to 10 µM
SMILES: Nc1ncnc2scc(C#Cc3cccc(NC(=O)c4ccn(-c5ccc(F)cc5)n4)c3)c12 [Ex81, N-(3-((4-aminothieno[2,3-d]pyrimidin-5-yl)ethynyl)phenyl)-1-(4-fluorophenyl)-1H-pyrazole-3-carboxamide]

IC50 (WEE1): ≥ 10 µM
SMILES: CNc1ncc2cc(-c3c(Cl)ccc(NC(=O)c4ccn(-c5ccc(F)cc5)n4)c3Cl)c(=O)n(C)c2n1 [Ex82, N-(2,4-dichloro-3-(8-methyl-2-(methylamino)-7-oxo-7,8-dihydropyrido[2,3-d]pyrimidin-6-yl)phenyl)-1-(4-fluorophenyl)-1H-pyrazole-3-carboxamide]

IC50 (TAK1-TAB1): ≥ 10 µM
SMILES: Cc1ccc(NC(=O)c2ccn(-c3ccc(F)cc3)n2)cc1Oc1ccnc2[nH]ccc12 [Ex83, N-(3-((1H-pyrrolo[2,3-b]pyridin-4-yl)oxy)-4-methylphenyl)-1-(4-fluorophenyl)-1H-pyrazole-3-carboxamide]

IC50 (PLK4): ≥ 10 µM
SMILES: O=C(Nc1cccc(NC(=O)c2ccn(-c3ccc(F)cc3)n2)c1)c1cccc(-c2ccn[nH]2)n1 [Ex84, N-(3-(1-(4-fluorophenyl)-1H-pyrazole-3-carboxamido)phenyl)-6-(1H-pyrazol-5-yl)picolinamide]

IC50 (PLK4): < 0.5 µM
SMILES: CC(=O)Nc1nc(C)c(-c2ccnc(Nc3cc(NC(=O)c4ccn(-c5ccc(F)cc5)n4)ccc3C)n2)s1 [Ex86, N-(3-((4-(2-acetamido-4-methylthiazol-5-yl)pyrimidin-2-yl)amino)-4-methylphenyl)-1-(4-fluorophenyl)-1H-pyrazole-3-carboxamide]

Reference: US20240400577A1, “MODULATORS OF PROTEIN KINASES” (VIBLIOME THERAPEUTICS, LLC, priority 2021, published 2024)
